{"source": "paper PMC6437697", "about": "(Journal of Medicinal Chemistry, 2019)", "assay_in_all_cases": "KINOMEscan", "format_in_all_cases": "binding", "settings_in_all_cases": "read-out: % control activity remaining", "key": {"ARK5": {"target": "T1, ARK5 (Homo sapiens, UniProt O60285)", "T1 construct": "purchased Eurofins DiscoverX KINOMEscan", "T1 sequence (O60285 1-661)": "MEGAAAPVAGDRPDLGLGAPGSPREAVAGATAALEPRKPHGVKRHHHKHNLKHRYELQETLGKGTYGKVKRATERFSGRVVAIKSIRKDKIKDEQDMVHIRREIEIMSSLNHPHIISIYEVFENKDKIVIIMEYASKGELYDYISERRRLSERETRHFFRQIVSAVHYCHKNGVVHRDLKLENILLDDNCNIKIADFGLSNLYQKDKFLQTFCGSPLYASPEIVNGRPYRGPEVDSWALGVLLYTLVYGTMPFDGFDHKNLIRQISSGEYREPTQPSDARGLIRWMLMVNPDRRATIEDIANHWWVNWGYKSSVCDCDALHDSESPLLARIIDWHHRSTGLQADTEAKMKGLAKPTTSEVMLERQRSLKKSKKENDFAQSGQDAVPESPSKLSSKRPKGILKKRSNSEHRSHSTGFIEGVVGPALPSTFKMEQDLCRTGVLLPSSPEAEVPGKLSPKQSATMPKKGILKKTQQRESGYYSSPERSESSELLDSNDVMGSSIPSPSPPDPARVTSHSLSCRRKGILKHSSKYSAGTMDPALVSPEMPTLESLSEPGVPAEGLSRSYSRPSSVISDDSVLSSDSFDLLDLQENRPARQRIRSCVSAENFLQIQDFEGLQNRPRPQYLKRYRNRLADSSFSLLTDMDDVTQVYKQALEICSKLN"}, "CTK": {"target": "T2, CTK (Homo sapiens, UniProt P42679)", "T2 construct": "purchased Eurofins DiscoverX KINOMEscan", "T2 sequence (P42679 1-507)": "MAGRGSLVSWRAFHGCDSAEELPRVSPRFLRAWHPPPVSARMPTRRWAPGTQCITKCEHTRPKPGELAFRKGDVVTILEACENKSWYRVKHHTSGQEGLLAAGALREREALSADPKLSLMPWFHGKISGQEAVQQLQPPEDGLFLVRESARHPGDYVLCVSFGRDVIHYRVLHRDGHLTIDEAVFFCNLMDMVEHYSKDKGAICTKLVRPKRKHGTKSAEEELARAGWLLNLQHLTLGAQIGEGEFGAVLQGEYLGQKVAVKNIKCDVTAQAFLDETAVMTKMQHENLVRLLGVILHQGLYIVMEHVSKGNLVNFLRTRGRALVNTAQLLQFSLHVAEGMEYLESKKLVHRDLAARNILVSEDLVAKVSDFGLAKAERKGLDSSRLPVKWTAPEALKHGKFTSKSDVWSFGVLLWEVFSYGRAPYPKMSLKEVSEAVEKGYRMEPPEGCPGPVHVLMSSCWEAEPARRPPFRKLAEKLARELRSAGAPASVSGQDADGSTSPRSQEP"}, "EGFR(G719C)": {"target": "T3, EGFR(G719C) (Homo sapiens, UniProt P00533, G719C)", "T3 construct": "purchased Eurofins DiscoverX KINOMEscan", "T3 sequence (P00533 25-1210 G719C limits assumed)": "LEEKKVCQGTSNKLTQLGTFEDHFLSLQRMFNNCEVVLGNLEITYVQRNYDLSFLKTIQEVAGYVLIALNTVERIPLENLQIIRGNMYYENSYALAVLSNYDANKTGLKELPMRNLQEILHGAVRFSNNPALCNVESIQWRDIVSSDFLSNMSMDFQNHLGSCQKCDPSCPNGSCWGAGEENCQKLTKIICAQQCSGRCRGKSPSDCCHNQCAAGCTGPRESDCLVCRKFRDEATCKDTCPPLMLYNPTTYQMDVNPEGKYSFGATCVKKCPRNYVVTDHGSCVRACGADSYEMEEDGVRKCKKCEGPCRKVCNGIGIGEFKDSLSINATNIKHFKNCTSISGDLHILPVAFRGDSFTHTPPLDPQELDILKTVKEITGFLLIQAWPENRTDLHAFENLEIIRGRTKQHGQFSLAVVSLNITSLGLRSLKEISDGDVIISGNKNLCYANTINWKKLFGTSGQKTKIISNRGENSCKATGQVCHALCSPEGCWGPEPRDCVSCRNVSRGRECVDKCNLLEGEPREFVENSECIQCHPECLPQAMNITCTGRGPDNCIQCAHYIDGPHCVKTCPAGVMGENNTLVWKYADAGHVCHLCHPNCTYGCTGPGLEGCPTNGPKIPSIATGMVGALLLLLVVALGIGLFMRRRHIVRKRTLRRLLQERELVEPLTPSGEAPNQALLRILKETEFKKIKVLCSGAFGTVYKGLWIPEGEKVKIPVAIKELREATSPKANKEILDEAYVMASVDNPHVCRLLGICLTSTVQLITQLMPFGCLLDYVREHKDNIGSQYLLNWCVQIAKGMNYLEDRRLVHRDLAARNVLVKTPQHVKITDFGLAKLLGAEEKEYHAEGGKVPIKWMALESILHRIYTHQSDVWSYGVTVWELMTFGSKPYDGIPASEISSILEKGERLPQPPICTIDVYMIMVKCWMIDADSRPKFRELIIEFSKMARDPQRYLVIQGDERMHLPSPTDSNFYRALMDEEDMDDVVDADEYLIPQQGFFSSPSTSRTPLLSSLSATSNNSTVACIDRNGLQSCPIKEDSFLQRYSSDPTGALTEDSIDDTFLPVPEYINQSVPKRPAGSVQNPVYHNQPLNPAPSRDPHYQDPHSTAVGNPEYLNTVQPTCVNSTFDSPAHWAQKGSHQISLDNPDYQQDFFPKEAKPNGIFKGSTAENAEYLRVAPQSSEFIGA"}, "EPHA7": {"target": "T4, EPHA7 (Homo sapiens, UniProt Q15375)", "T4 construct": "purchased Eurofins DiscoverX KINOMEscan"}, "ERBB3": {"target": "T5, ERBB3 (Homo sapiens, UniProt P21860)", "T5 construct": "purchased Eurofins DiscoverX KINOMEscan"}, "ERK4": {"target": "T6, ERK4 (Homo sapiens, UniProt P31152)", "T6 construct": "purchased Eurofins DiscoverX KINOMEscan"}, "FGFR4": {"target": "T7, FGFR4 (Homo sapiens, UniProt P22455)", "T7 construct": "purchased Eurofins DiscoverX KINOMEscan", "T7 sequence (P22455 22-802)": "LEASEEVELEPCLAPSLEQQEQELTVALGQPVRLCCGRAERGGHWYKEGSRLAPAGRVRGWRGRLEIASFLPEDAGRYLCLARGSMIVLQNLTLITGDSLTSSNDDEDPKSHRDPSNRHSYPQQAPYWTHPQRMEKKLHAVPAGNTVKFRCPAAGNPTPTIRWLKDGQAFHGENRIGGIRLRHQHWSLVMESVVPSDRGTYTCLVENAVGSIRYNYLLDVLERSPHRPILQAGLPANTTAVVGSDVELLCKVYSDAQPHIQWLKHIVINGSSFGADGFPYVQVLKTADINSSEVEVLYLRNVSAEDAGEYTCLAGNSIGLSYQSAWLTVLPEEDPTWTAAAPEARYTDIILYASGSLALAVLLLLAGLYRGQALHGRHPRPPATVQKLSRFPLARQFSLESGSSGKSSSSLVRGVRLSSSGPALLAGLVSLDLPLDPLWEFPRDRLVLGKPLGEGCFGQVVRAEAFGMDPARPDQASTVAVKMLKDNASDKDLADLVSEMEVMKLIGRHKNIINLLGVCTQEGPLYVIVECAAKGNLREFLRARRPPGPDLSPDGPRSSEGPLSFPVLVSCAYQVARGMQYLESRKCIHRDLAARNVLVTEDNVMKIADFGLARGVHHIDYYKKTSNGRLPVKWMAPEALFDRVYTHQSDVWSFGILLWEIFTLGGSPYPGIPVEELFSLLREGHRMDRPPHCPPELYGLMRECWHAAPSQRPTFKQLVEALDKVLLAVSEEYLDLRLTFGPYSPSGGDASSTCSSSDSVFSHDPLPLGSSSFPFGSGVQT"}, "KIT(V559D,T670I)": {"target": "T8, KIT(V559D,T670I) (Homo sapiens, UniProt P10721, T670I/V559D)", "T8 construct": "purchased Eurofins DiscoverX KINOMEscan", "T8 sequence (P10721 26-976 V559D/T670I)": "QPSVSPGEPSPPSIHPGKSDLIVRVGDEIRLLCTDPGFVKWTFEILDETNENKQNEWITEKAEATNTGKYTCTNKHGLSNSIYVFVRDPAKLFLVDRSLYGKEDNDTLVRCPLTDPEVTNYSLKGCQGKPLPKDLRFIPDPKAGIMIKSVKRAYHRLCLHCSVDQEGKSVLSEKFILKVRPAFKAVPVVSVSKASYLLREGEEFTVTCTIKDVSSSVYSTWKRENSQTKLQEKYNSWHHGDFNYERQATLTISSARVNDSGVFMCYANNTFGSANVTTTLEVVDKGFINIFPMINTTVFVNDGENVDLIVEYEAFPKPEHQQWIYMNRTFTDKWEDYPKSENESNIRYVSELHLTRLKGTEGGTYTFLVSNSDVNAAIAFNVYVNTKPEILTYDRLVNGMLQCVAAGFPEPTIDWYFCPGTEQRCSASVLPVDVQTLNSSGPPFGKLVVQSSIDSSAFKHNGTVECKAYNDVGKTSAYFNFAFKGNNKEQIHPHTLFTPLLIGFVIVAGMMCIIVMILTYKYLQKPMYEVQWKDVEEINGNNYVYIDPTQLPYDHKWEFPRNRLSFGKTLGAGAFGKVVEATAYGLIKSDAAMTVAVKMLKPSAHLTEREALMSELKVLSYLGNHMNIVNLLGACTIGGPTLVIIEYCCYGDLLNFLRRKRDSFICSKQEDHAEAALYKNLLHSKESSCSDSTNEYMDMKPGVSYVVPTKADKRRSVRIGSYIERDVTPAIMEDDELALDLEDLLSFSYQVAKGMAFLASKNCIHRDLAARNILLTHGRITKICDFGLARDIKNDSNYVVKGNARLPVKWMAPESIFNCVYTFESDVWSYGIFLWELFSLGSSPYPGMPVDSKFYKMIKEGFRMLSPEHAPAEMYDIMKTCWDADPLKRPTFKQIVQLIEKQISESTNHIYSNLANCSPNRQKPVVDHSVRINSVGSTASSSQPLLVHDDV"}, "MAP4K2": {"target": "T9, MAP4K2 (Homo sapiens, UniProt Q12851)", "T9 construct": "purchased Eurofins DiscoverX KINOMEscan", "T9 sequence (Q12851 1-820)": "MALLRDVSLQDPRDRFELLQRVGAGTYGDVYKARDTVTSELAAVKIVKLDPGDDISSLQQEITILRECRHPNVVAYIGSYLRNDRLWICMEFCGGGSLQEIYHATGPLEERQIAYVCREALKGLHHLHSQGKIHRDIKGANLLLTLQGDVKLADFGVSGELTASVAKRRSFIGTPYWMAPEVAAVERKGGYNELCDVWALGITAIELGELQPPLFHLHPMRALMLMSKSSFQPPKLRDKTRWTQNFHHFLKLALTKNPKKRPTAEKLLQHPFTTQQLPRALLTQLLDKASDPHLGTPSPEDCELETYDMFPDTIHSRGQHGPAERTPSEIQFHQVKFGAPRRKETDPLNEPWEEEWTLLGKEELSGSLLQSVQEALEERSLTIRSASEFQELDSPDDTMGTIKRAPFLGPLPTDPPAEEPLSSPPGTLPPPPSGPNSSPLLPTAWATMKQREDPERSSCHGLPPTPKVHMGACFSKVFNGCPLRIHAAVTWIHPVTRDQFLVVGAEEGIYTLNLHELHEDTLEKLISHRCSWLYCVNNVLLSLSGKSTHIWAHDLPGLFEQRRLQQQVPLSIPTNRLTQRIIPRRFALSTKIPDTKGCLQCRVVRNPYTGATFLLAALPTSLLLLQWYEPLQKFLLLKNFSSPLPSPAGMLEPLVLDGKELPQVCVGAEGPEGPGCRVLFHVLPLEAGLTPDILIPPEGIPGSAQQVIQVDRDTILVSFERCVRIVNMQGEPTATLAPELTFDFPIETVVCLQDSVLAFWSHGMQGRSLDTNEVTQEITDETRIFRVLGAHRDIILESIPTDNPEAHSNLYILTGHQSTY"}, "RET(V804L)": {"target": "T10, RET(V804L) (Homo sapiens, UniProt P07949, V804L)", "T10 construct": "purchased Eurofins DiscoverX KINOMEscan", "T10 sequence (P07949 29-1114 V804L)": "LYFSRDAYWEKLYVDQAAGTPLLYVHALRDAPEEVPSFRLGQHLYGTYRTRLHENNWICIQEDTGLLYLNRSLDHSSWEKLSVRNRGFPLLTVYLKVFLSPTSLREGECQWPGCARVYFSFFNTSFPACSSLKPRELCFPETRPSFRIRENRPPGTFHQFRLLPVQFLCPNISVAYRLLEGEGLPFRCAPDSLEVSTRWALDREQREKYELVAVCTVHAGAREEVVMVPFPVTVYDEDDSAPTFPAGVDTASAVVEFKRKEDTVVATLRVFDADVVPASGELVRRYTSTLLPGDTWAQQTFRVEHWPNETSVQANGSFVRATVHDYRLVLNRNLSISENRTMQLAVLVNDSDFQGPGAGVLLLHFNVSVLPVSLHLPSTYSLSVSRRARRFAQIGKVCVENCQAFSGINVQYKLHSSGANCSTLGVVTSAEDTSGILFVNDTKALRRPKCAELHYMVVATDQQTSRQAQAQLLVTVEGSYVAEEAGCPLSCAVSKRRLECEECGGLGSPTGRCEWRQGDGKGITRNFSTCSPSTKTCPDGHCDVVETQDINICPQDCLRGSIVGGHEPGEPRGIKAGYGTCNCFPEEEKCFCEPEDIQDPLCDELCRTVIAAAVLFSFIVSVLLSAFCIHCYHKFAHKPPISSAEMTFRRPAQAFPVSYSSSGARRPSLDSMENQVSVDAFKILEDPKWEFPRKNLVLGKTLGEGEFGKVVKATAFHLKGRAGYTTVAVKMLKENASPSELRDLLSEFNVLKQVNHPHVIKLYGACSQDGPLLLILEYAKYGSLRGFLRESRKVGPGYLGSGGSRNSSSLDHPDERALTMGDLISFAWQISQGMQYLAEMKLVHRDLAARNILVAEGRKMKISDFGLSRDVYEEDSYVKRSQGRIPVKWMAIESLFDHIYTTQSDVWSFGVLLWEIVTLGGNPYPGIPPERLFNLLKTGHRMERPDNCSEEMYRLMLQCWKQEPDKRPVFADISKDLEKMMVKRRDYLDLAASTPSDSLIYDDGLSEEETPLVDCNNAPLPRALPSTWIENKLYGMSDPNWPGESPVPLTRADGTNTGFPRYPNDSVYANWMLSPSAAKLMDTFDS"}, "[1]": {"target": "T11, RSK4(Kin.Dom.1-N-terminal) (Homo sapiens, UniProt Q9UK32)", "T11 construct": "RSK4(Kin.Dom.1-N-terminal); purchased Eurofins DiscoverX KINOMEscan", "T11 sequence (Q9UK32 73-330 limits assumed)": "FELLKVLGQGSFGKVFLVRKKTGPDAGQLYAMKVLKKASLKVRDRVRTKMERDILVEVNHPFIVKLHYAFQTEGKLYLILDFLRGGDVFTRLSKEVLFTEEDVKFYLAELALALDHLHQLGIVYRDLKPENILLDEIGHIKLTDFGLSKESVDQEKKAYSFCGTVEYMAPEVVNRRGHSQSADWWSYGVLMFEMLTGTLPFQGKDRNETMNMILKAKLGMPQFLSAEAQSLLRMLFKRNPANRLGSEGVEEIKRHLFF"}, "SgK110": {"target": "T12, SgK110 (Homo sapiens, UniProt P0C264)", "T12 construct": "purchased Eurofins DiscoverX KINOMEscan", "T12 sequence (P0C264 1-359)": "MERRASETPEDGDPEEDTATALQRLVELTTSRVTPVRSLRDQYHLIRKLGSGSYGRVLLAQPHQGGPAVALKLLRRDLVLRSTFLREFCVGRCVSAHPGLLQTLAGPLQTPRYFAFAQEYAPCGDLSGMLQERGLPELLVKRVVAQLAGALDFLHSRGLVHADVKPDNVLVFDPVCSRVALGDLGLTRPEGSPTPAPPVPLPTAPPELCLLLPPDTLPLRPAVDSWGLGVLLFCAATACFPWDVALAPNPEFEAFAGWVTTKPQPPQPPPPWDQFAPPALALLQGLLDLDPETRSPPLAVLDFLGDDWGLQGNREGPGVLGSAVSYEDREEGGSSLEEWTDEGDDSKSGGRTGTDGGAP"}}, "data": [{"molecule": "Clc1cc(NCC2CC2)c2ncc(-c3ccc4[nH]ncc4c3)n2n1", "note": "[compound 2, 6-Chloro-N-(cyclopropylmethyl)-3-(1H-indazol-5-yl)imidazo[1,2-b]pyridazin-8-amine]", "values": [{"measurement": "remaining binding at 1 µM", "setting": "ARK5", "value": 99, "unit": "%"}, {"measurement": "remaining binding at 1 µM", "setting": "CTK", "value": 91, "unit": "%"}, {"measurement": "remaining binding at 1 µM", "setting": "EGFR(G719C)", "value": 91, "unit": "%"}, {"measurement": "remaining binding at 1 µM", "setting": "EPHA7", "value": 94, "unit": "%"}, {"measurement": "remaining binding at 1 µM", "setting": "ERBB3", "value": 96, "unit": "%"}, {"measurement": "remaining binding at 1 µM", "setting": "ERK4", "value": 100, "unit": "%"}, {"measurement": "remaining binding at 1 µM", "setting": "FGFR4", "value": 94, "unit": "%"}, {"measurement": "remaining binding at 1 µM", "setting": "KIT(V559D,T670I)", "value": 20, "unit": "%"}, {"measurement": "remaining binding at 1 µM", "setting": "MAP4K2", "value": 99, "unit": "%"}, {"measurement": "remaining binding at 1 µM", "setting": "RET(V804L)", "value": 100, "unit": "%"}, {"measurement": "remaining binding at 1 µM", "setting": "[1]", "value": 27, "unit": "%"}, {"measurement": "remaining binding at 1 µM", "setting": "SgK110", "value": 100, "unit": "%"}]}, {"molecule": "O=C(CN1CCOCC1)N[C@H]1CC[C@H](Nc2cc(Cl)nn3c(-c4ccc5[nH]ncc5c4)cnc23)CC1", "note": "[compound 26]", "values": [{"measurement": "remaining binding at 1 µM", "setting": "ARK5", "value": 100, "unit": "%"}, {"measurement": "remaining binding at 1 µM", "setting": "CTK", "value": 95, "unit": "%"}, {"measurement": "remaining binding at 1 µM", "setting": "EGFR(G719C)", "value": 93, "unit": "%"}, {"measurement": "remaining binding at 1 µM", "setting": "EPHA7", "value": 97, "unit": "%"}, {"measurement": "remaining binding at 1 µM", "setting": "ERBB3", "value": 99, "unit": "%"}, {"measurement": "remaining binding at 1 µM", "setting": "ERK4", "value": 99, "unit": "%"}, {"measurement": "remaining binding at 1 µM", "setting": "FGFR4", "value": 99, "unit": "%"}, {"measurement": "remaining binding at 1 µM", "setting": "KIT(V559D,T670I)", "value": 0.85, "unit": "%"}, {"measurement": "remaining binding at 1 µM", "setting": "MAP4K2", "value": 76, "unit": "%"}, {"measurement": "remaining binding at 1 µM", "setting": "RET(V804L)", "value": 88, "unit": "%"}, {"measurement": "remaining binding at 1 µM", "setting": "[1]", "value": 13, "unit": "%"}, {"measurement": "remaining binding at 1 µM", "setting": "SgK110", "value": 100, "unit": "%"}]}, {"molecule": "CN1CCC(CNc2cc(Cl)nn3c(-c4cc5nc(Nc6ccccc6)[nH]c5cc4F)cnc23)CC1", "note": "[compound 31, 6-Chloro-3-(6-fluoro-2-(phenylamino)-1H-benzo[d]imidazol-5-yl)-N-((1-methylpiperidin-4-yl)methyl)imidazo[1,2-b]pyridazin-8-amine]", "values": [{"measurement": "remaining binding at 1 µM", "setting": "ARK5", "value": 100, "unit": "%"}, {"measurement": "remaining binding at 1 µM", "setting": "CTK", "value": 69, "unit": "%"}, {"measurement": "remaining binding at 1 µM", "setting": "EGFR(G719C)", "value": 71, "unit": "%"}, {"measurement": "remaining binding at 1 µM", "setting": "EPHA7", "value": 94, "unit": "%"}, {"measurement": "remaining binding at 1 µM", "setting": "ERBB3", "value": 71, "unit": "%"}, {"measurement": "remaining binding at 1 µM", "setting": "ERK4", "value": 93, "unit": "%"}, {"measurement": "remaining binding at 1 µM", "setting": "FGFR4", "value": 98, "unit": "%"}, {"measurement": "remaining binding at 1 µM", "setting": "KIT(V559D,T670I)", "value": 97, "unit": "%"}, {"measurement": "remaining binding at 1 µM", "setting": "MAP4K2", "value": 85, "unit": "%"}, {"measurement": "remaining binding at 1 µM", "setting": "RET(V804L)", "value": 92, "unit": "%"}, {"measurement": "remaining binding at 1 µM", "setting": "[1]", "value": 97, "unit": "%"}, {"measurement": "remaining binding at 1 µM", "setting": "SgK110", "value": 100, "unit": "%"}]}]}
